Data taken from ChEMBL document CHEMBL1201862, “PubChem BioAssay data set” (2004).
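Step 1: Grow cells in 96-well plates. Step 2: Expose to compound for 48 hours at 5 concentrations. Step 3: Interpolate endpoints linearly; if unreached, use highest concentration. GI50: concentration for 50% inhibition of growth.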 Active and inactive are the calls of the source. Rule as the data show it: active = GI50 up to about 1.1 µM and inactive = higher.

Tests used:
Assay in all cases: NCI-60 cell line screen, 48 h
TK-10 = system: TK-10
NCI-H522 = system: NCI-H522
SK-MEL-2 = system: SK-MEL-2
A498 = system: A498
COLO 205 = system: COLO 205
LXFL 529 = system: LXFL 529
OVCAR-8 = system: OVCAR-8
SK-OV-3 = system: SK-OV-3
UACC-62 = system: UACC-62
OVCAR-4 = system: OVCAR-4
K562 = system: K562
RPMI-8226 = system: RPMI-8226
SF-539 = system: SF-539
HL-60 = system: HL-60
SK-MEL-5 = system: SK-MEL-5
IGROV-1 = system: IGROV-1
EKVX = system: EKVX
Malme-3M = system: Malme-3M

Measured: GI50

COC(=O)CC(=O)NCC1=CCC(=O)CC1
inactive: TK-10 > 100 µM | NCI-H522 > 100 µM | SK-MEL-2 > 100 µM | A498 > 100 µM | COLO 205 > 100 µM | LXFL 529 > 100 µM | OVCAR-8 > 100 µM | SK-OV-3 > 100 µM | UACC-62 > 100 µM | OVCAR-4 > 100 µM | K562 > 100 µM | RPMI-8226 > 100 µM | SF-539 > 100 µM | HL-60 > 100 µM | SK-MEL-5 > 100 µM | IGROV-1 > 100 µM | EKVX > 100 µM | Malme-3M > 100 µM

CC1=C(C(=O)Nc2ccc([N+](=O)[O-])cc2)C(c2ccco2)C(C(=O)Nc2ccc([N+](=O)[O-])cc2)=C(C)N1
inactive: TK-10 12.3 µM | NCI-H522 12.4 µM | SK-MEL-2 7.52 µM | A498 10.5 µM | COLO 205 15.8 µM | LXFL 529 6.75 µM | OVCAR-8 26.9 µM | SK-OV-3 9.35 µM | OVCAR-4 3.88 µM | K562 6.37 µM | RPMI-8226 2.9 µM | SF-539 16.5 µM | HL-60 5.18 µM | SK-MEL-5 14.5 µM | IGROV-1 14.9 µM | EKVX 3.63 µM | Malme-3M 12.4 µM

O=C(COc1ccc(Cl)cc1)N1N=C(c2ccc(Cl)cc2)CC1(O)c1ccccc1 (centres undefined)
inactive: TK-10 26.7 µM | NCI-H522 14.3 µM | SK-MEL-2 24.3 µM | A498 13.5 µM | COLO 205 21 µM | LXFL 529 15 µM | OVCAR-8 15.2 µM | SK-OV-3 19.5 µM | UACC-62 15.9 µM | OVCAR-4 7.48 µM | K562 9.73 µM | RPMI-8226 7.03 µM | SF-539 24.8 µM | HL-60 6.5 µM | SK-MEL-5 14.5 µM | IGROV-1 18.5 µM | EKVX 30 µM | Malme-3M 20.2 µM

COc1cc2c3c(c1OC)-c1c(ccc4c1OCO4)CC3(C#N)N(C(=O)c1ccccc1)CC2 (centres undefined)
inactive: TK-10 > 100 µM | NCI-H522 > 100 µM | A498 > 100 µM | COLO 205 > 100 µM | LXFL 529 73.8 µM | OVCAR-8 44.5 µM | SK-OV-3 50.5 µM | UACC-62 42 µM | OVCAR-4 21 µM | K562 54.6 µM | RPMI-8226 8.91 µM | SF-539 28.1 µM | HL-60 > 100 µM | SK-MEL-5 > 100 µM | IGROV-1 > 100 µM | EKVX 74.1 µM | Malme-3M 51.2 µM

C[N+]1=c2c3cccc4cccc(c(=O)n2CC1)c43
inactive: TK-10 5.82 µM | NCI-H522 11.4 µM | SK-MEL-2 19.6 µM | A498 15.1 µM | COLO 205 10.1 µM | LXFL 529 13.9 µM | OVCAR-8 16.6 µM | SK-OV-3 20.6 µM | UACC-62 17.5 µM | OVCAR-4 17.6 µM | K562 19 µM | RPMI-8226 23.9 µM | SF-539 14.6 µM | HL-60 20.9 µM | SK-MEL-5 18.2 µM | IGROV-1 21.9 µM | EKVX 29.4 µM | Malme-3M 10.5 µM

NS(=O)(=O)c1ccc(NC(=O)COC(=O)c2cccc3c(=O)c4ccccc4[nH]c23)cc1
inactive: TK-10 24.7 µM | NCI-H522 12.3 µM | SK-MEL-2 19.5 µM | A498 17.9 µM | COLO 205 > 88.3 µM | LXFL 529 7.93 µM | OVCAR-8 20.7 µM | SK-OV-3 18.9 µM | UACC-62 14.6 µM | OVCAR-4 25.5 µM | K562 > 100 µM | RPMI-8226 > 100 µM | SF-539 16.3 µM | HL-60 > 100 µM | SK-MEL-5 > 83.4 µM | IGROV-1 21.5 µM | EKVX 38.2 µM | Malme-3M 17.9 µM

CC(C(=O)Oc1ccc2ccccc2c1-c1c(O)ccc2ccccc12)c1ccccc1 (centres undefined)
inactive: TK-10 17.6 µM | NCI-H522 > 10 µM | SK-MEL-2 15.1 µM | A498 15.9 µM | COLO 205 17.1 µM | LXFL 529 14.1 µM | OVCAR-8 18.8 µM | SK-OV-3 15.4 µM | UACC-62 13 µM | OVCAR-4 10.9 µM | K562 15 µM | RPMI-8226 15.3 µM | SF-539 16.3 µM | HL-60 13.2 µM | SK-MEL-5 13.7 µM | IGROV-1 17.1 µM | EKVX 16.8 µM | Malme-3M 17.4 µM

CC(C)N(C(=O)C1(C)CC1)C(C)C
inactive: NCI-H522 > 100 µM | SK-MEL-2 > 100 µM | A498 > 100 µM | COLO 205 > 100 µM | LXFL 529 > 100 µM | OVCAR-8 > 100 µM | SK-OV-3 > 100 µM | UACC-62 > 100 µM | OVCAR-4 > 100 µM | K562 > 100 µM | RPMI-8226 > 100 µM | SF-539 > 100 µM | HL-60 > 100 µM | SK-MEL-5 > 100 µM | IGROV-1 > 100 µM | EKVX > 100 µM | Malme-3M > 100 µM

COc1cc(OC)cc(C(=O)Cc2c(C(=O)c3ccccc3)c3ccccc3n2C(=O)c2ccccc2)c1
inactive: TK-10 38.5 µM | NCI-H522 6 µM | SK-MEL-2 20.5 µM | A498 13.2 µM | COLO 205 28.6 µM | LXFL 529 9.95 µM | OVCAR-8 16.9 µM | SK-OV-3 22.8 µM | UACC-62 35.4 µM | OVCAR-4 15.3 µM | K562 16.7 µM | RPMI-8226 9.29 µM | SF-539 30.2 µM | HL-60 34.5 µM | SK-MEL-5 13.1 µM | IGROV-1 31.3 µM | EKVX 55.2 µM | Malme-3M 38.5 µM
